Measurements reported in patent US11980612B2, “Synergistic anti-inflammatory compositions” (The Procter & Gamble Company, priority 2020, dated 2024).
Values joined by “and” are separate entries in the source; they are usually repeats but may differ in a detail not shown here. Equal entries are not always repeated.

Legend:
[1] = tested on: PGE2 release from TERT keratinocytes (tKC); assay: PGE2 assay: inhibition of PGE2 release from UVB-stressed TERT keratinocytes, normalized to ATP; assay type: cell-based, human; settings: PO 1 × 10−7 w/v %, actives alone or combination (observed), 15 mJ/cm2 UVB, 18-24 hours
From the text: Inhibiting the Cell's Inflammation Response to a Stressor-Prostaglandin E2 (“PGE2”) Assay.
PGE2 is a hormone-like substance that is known to participate in modulation of inflammation. Cellular inflammation is associated with a variety of hair, skin and scalp conditions, and thus inhibiting PGE2 activation vis-à-vis cellular inflammation may help treat these types of hair, skin and scalp conditions.
TERT keratinocytes (“tKC” are human keratinocytes which have been transfected with the human telomerase reverse transcriptase gene to immortalize the cells) were obtained from Jerry Shay, University of Texas, Southwestern and plated at 40,000 cells/well into 24-well plates in 1 ml/well volume. EpiLife Medium (Life Technologies cat #MEPICFPRF500) supplemented with keratinocyte growth supplement (Life technologies cat #S-001-5) was used as the assay media. The cells were grown to confluence/near confluence, (typically 24 hours after plating 40,000 cells/well in 24 well plate) and then subjected to 15 mJ/cm^2 UVB-stress (typically […] in BioSun). The test compositions (strobilurins, piroctone olamine, strobilurins+piroctone olamine, and positive control 10 uM idebenone) were added to replace the medium (EpiLife Medium with 0.1% final concentration of DMSO—briefly, 1000× stocks of actives and combinations made in 100% DMSO and diluted into Epilife media 1 to 1000), and the plates were incubated for 18-24 hours.
The supernatant is removed from each well, and the cells are rinsed with 2 ml/well medium (without supplements). A Cell Titer-Glo assay (Promega cat #G7571; Madison WI) is used to measure ATP activity, is conducted on the cells for normalization. The supernatant is tested in a PGE2 assay (Prostaglandin E2 Assay kit from Cisbio Bioassays cat #62P2APEB) according to the manufacturer's instructions. The PGE2 results are normalized to ATP activity. The PGE2 quantitation (pg/mL) from the supernatant is divided by the normalization factor (treatment ATP/control ATP).
Example Calculation to Compute PGE2 Inhibition by Strobilurin: • Luminescence of vehicle control in ATP assay=704567 • Luminescence of strobilurin treatment in ATP assay=678903 • Normalization factor for strobilurin treatment=1.038 • PGE2 quantitation for vehicle control=2458 pg/mL PGE2 • PGE2 quantitation for strobilurin treatment=2347 pg/mL PGE2 • Normalized PGE2 values • control=2458/1=2458 • strobilurin=2347/1.038=2261 • % inhibition for strobilurin=[100×(2458−[…])/2458]=8%
Student's T-Test (equal variance, 2 sided) are used to calculate p-values between observed combinations and expected combinations with p-value<0.05 considered statistically significant. Expected combination values are calculated by adding the PGE2 inhibition values of strobilurins alone and piroctone olamine alone. Synergy factor is simply the ratio of observed combination/expected combination. Synergy factors greater than 1.0 with a p-value<0.05 are deemed synergistic.

[2] = general statement, no method; cited from earlier work
[3] = strobilurin 1 × 10−7 w/v %, strobilurin:PO ratio 1:1
[4] = strobilurin 1 × 10−8 w/v %, strobilurin:PO ratio 1:10
[5] = strobilurin 1 × 10−9 w/v %, strobilurin:PO ratio 1:50
[6] = strobilurin 4 × 10−7 w/v %, strobilurin:PO ratio 4:1

Structure (SMILES)	% PGE2 Inhibition [1, 3]	% PGE2 Inhibition [1, 4]	% PGE2 Inhibition [1, 5]	% PGE2 Inhibition [1, 6]	solubility in water [2]
Cc1cc(CC(C)CC(C)(C)C)n(O)c(=O)c1.NCCO (stereo not drawn) [PO, piroctone olamine]	3.2%	2.6%	2.4%	2.8% and 2.2%	–
CO/C=C(/C(=O)OC)c1ccccc1Oc1cc(Oc2ccccc2C#N)ncn1 [azoxystrobin]	8%	1%	1%	13%	low solubility in water
CNC(=O)/C(=N/OC)c1ccccc1COc1cc(C)ccc1C [dimoxystrobin]	18.9%	7.6%	4.1%	12.4%	–
CO/N=C(/C1=NOCCO1)c1ccccc1Oc1ncnc(Oc2ccccc2Cl)c1F [fluoxastrobin]	5.6%	3.3%	1%	8.6%	–
CO/N=C(/C(=O)OC)c1ccccc1COc1ccccc1C [kresoxim methyl]	4.1%	7.3%	3.2%	6.7%	–
CNC(=O)/C(=N/OC)c1ccccc1CO/N=C(C)/C(=N/OC)C(/C)=N/OC [orysastrobin]	8.2%	15.6%	1.1%	4.7%	–
CO/C=C(/C(=O)OC)c1ccccc1COc1cccc(C(F)(F)F)n1 [picoxystrobin]	2.5%	8.4%	8.9%	16.7%	–
CON=C(C(=O)OC)c1ccccc1CON=C(C)c1cccc(C(F)(F)F)c1 [trifloxystrobin]	3.2%	0.5%	0.7%	8.3%	–
